Measured values published in patent US20060121449A1, “Method for selection of compounds which inhibit clonal cell growth and use thereof” (priority 2002, published 2006).
“Also recorded” adds a separate entry of the source.

How the values were obtained:
[1] = test system: spleen antibody producing cells against sheep red cells; details: from the literature; cited from earlier work
[2] = test system: polyoma virus transformed BHK21/c13 cells, clone S100T1; assay: Clonal test: clonal growth of S100T1 cells in soft agar (Exp 2, 4, 6, 15, 16); type: cell-based, hamster; details: for Effect on clonal growth at 500 μM: DMSO toxicity might interfere
[3] = test system: polyoma virus transformed BHK21/c13 cells, line S100T1; assay: Collocation inhibition test: clonal growth in sparsely and densely seeded areas of a cell density gradient of S100T1 cells in soft agar (Exp 13, 17, 19-26); details: for Effect on cell cloning in soft agar: in words; for Significance: Exp 17 day 14;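 for Clonal growth, H high density area of cell gradient, High: grades rise with clonal growth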;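 for Clonal growth, H high density area of cell gradient, Low: grades rise with clonal growth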;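 for Clonal growth, H high density area of cell gradient, Medium: grades rise with clonal growth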;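 for Clonal growth, L low density area of cell gradient, High: grades rise with clonal growth and minus or plus-minus means none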;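 for Clonal growth, L low density area of cell gradient, Low: grades rise with clonal growth and minus or plus-minus means none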;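 for all read-outs here: soft agar cultures in 24-well plates with a cell density gradient in the top layer, compounds applied from DMSO stocks, clonal growth scored in sparse versus dense areas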
Procedure: (§1) The cells should be grown in a top agar layer to avoid growth on the bottom surface. […] Both densely seeded and sparsely seeded areas were photographed.
(§2) Cells: The polyoma virus transformed offspring of BHK21/c13, S100T1, was grown on 75 cm^2 flasks on Eagles medium with 5% foetal calf serum. […] Foetal calf serum (0.7 ml) was added to each harvest. After low speed centrifugation the supernatant was discarded and the cells were dispersed in 1 ml FBS.
(§3) The concentration of ultra low gelling temperature agarose (Sigma) of the top agar layer with cells was also 0.8%. […] The addition of cells was performed at the same side of the wells in order to create similar cell density gradients. Finally the top layer agar was consolidated in the refrigerator.
(§4) After that it was incubated at 37 degrees in 5% CO2 atmosphere.
(§5) Agar cultures were prepared in Falcon 24 well tissue culture plate. Each well contained two agar layers of 0.3 ml.
(§6) Agar cultures were prepared in wells of Falcon 24 well tissue culture plate. Each contained two agar layers of 0.3 ml. […] The medium contained Eagles MEM and 10% foetal bovine serum (FBS).
(§7) The compounds were first solved in DMSO in 20 mM concentration and then diluted in medium. The top layer needed 60-90 minutes in the refrigerator for solidification before incubation in 37° C. with 5% CO2 atmosphere.
(§8) In this experiment the inhibitor was added to the bottom layer in order to get an easier way for making the cell density gradient. One side of the Falcon 24 well plate was elevated 12 degrees in the refrigerator for 60-90 minutes to solidify the bottom layer in an oblique position When then solidifying the cell containing top soft agar layer in horizontal position, the cell gradient constantly became good across the well. […] Another 90 minutes were spent in the refrigerator to consolidate the soft agar layer with cells in a horizontal position. Both layers contained 0.8% agarose, Eagles MEM and 10% FBS.
(§9) Tilting the plate 12 degrees when solidifying the bottom layer with the drug and casting the top layer with cells horizontally made a stable cell gradient.
(§10) The indicated compounds were added to soft agar cultures of the polyoma virus transformed cell line S100T1 of BHK21/c13 cells (Table 1). Agar cultures were prepared in wells of a Falcon 24 well tissue culture plate. The wells contained two agar layers of 0.3 ml. […] The bottom medium was identical, but without cells.
(§11) The compounds were first solved in DMSO in 20 mM concentration and then diluted in bottom medium. The agar layers needed 60-90 minutes in the refrigerator for consolidation before incubation at 37° C. in 5% CO2 atmosphere.

[4] = test system: polyoma virus transformed BHK21/c13 cells, line S100T1;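 note: soft agar cultures in 24-well plates with a cell density gradient in the top layer, compounds applied from DMSO stocks, clonal growth scored in sparse versus dense areas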;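 for Clonal growth, H high density area of cell gradient, High: grades rise with clonal growth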;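 for Clonal growth, H high density area of cell gradient, Low: grades rise with clonal growth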;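 for Clonal growth, H high density area of cell gradient, Medium: grades rise with clonal growth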;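 for Clonal growth, L low density area of cell gradient, High: grades rise with clonal growth and minus or plus-minus means none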;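 for Clonal growth, L low density area of cell gradient, Low: grades rise with clonal growth and minus or plus-minus means none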
Procedure: as §1, §2, §3, §4, §5, §6, §7, §8, §9, §10, §11

[5] = test system: BHK21/c13 (normal baby hamster kidney cells); details: Tjøtta E. (1968); cited from earlier work
[6] = Exp 15, 32000 S100T1 cells/well
[7] = preliminary results, Exp 13-18, 21-26, high concentration
[8] = preliminary results, Exp 13-18, 21-26, low concentration
[9] = preliminary results, Exp 13-18, 21-26, medium concentration

CN(C)N [1-1-dimethylhydrazine]
Effect on development of plaques in Jerne's test [1]: enhances development of plaques

O=C(O)Cc1ccccc1Nc1c(Cl)cccc1Cl [Diclofenac, reference compound]
Effect on clonal growth at 10 μM [2, 6]: probable significant increase in clonal growth
Effect on clonal growth at 10-100 μM [2, 6]: no significant inhibition
Anti-clonal effect, summary of Exp 15 ([2]; S100T1 in soft agar): increased clonal growth at low concentration
Clonal growth, L low density area of cell gradient, High [3, 7]: ++
Clonal growth, L low density area of cell gradient, Low [3, 8]: ++(+)
Effect on cell cloning in soft agar ([3]; preliminary results): A possible increase of clonal growth

COc1cc([C@@H]2c3cc4c(cc3[C@@H](O[C@@H]3O[C@@H]5CO[C@@H](C)O[C@H]5[C@H](O)[C@H]3O)[C@H]3COC(=O)[C@H]23)OCO4)cc(OC)c1O [Etoposide, reference compound]
Toxicity for body or dense cell populations [4]: yes
Inhibition of cells in crowded areas ([3]; Exp 17): induce the best inhibition of cells in crowded areas
Effect on growth in high- and low-density areas ([3]; Exp 17, 144000 S100T1 cells/well): growth inhibition of both high and low-density areas; also recorded: significant inhibition of growth in crowded areas
Clonal growth, results read on the day 14 ([3]; Exp 17, a: close to densely seeded cell areas, High: Colchicine 1, Podophyllotoxin 3, Etoposide 200, 4-OH—OPB 6.7 μM in wells, DMSO 29.2 μl): (+)
Clonal growth, results read on the day 14 ([3]; Exp 17, a: close to densely seeded cell areas, Low: Colchicine 0.1, Podophyllotoxin 0.3, Etoposide 20, 4-OH—OPB 0.67 μM in wells, DMSO 1.16 μl): +
Clonal growth, results read on the day 14 ([3]; Exp 17, a: close to densely seeded cell areas, Medium: Colchicine 0.3, Podophyllotoxin 0.9, Etoposide 60, 4-OH—OPB 2 μM in wells, DMSO 6.8 μl): +
Clonal growth, results read on the day 14 ([3]; Exp 17, b: sparsely seeded areas in the same agar culture, High: Colchicine 1, Podophyllotoxin 3, Etoposide 200, 4-OH—OPB 6.7 μM in wells, DMSO 29.2 μl): (+)
Clonal growth, results read on the day 14 ([3]; Exp 17, b: sparsely seeded areas in the same agar culture, Low: Colchicine 0.1, Podophyllotoxin 0.3, Etoposide 20, 4-OH—OPB 0.67 μM in wells, DMSO 1.16 μl): (+)
Clonal growth, results read on the day 14 ([3]; Exp 17, b: sparsely seeded areas in the same agar culture, Medium: Colchicine 0.3, Podophyllotoxin 0.9, Etoposide 60, 4-OH—OPB 2 μM in wells, DMSO 6.8 μl): (+)
Clones in sparsely seeded locations of the agar ([3]; Exp 17, compared with 4-OH-OPB): allow the growth of a few small clones in sparsely seeded locations of the agar; also recorded: to allow the growth of a few small clones in sparsely
Significance ([3]; a: close to densely seeded cell areas, High: Colchicine 1, Podophyllotoxin 3, Etoposide 200, 4-OH—OPB 6.7 μM in wells, DMSO 29.2 μl): Possible
Significance ([3]; a: close to densely seeded cell areas, Low: Colchicine 0.1, Podophyllotoxin 0.3, Etoposide 20, 4-OH—OPB 0.67 μM in wells, DMSO 1.16 μl): No
Significance ([3]; a: close to densely seeded cell areas, Medium: Colchicine 0.3, Podophyllotoxin 0.9, Etoposide 60, 4-OH—OPB 2 μM in wells, DMSO 6.8 μl): No
Significance ([3]; b: sparsely seeded areas, High: Colchicine 1, Podophyllotoxin 3, Etoposide 200, 4-OH—OPB 6.7 μM in wells, DMSO 29.2 μl): Possible
Significance ([3]; b: sparsely seeded areas, Low: Colchicine 0.1, Podophyllotoxin 0.3, Etoposide 20, 4-OH—OPB 0.67 μM in wells, DMSO 1.16 μl): Possible
Significance ([3]; b: sparsely seeded areas, Medium: Colchicine 0.3, Podophyllotoxin 0.9, Etoposide 60, 4-OH—OPB 2 μM in wells, DMSO 6.8 μl): Possible
Control of metastatic cells leaving tumour ([3]; ability of cells to leave a tumour, grow and infiltrate locally or grow in sparsely seeded areas, concluded from Exp 17): probably not
Clonal growth, H high density area of cell gradient, High [3, 7]: (+)
Clonal growth, L low density area of cell gradient, High [3, 7]: (+)
Clonal growth, H high density area of cell gradient, Low [3, 8]: +
Clonal growth, L low density area of cell gradient, Low [3, 8]: (+)
Clonal growth, H high density area of cell gradient, Medium [3, 9]: +
Clonal growth, L low density area of cell gradient, Medium [3, 9]: (+)
Control of settlement of metastatic cells ([3]; single cells or very few cells spread to distant sites, concluded from Exp 17): partly

COc1ccc2cc([C@H](C)C(=O)O)ccc2c1 [Naproxen]
Effect on clonal growth at 500 μM [2, 6]: inhibited significantly
Effect on clonal growth at 500 μM ([2]; Exp 15, 32000 S100T1 cells/well, listed as Naproxea): probably inhibited significantly
Significance of results ([2]; Exp 16, read after 14 days, Naproxen No 9, ca. 223 μM): possible
Colony inhibiting activity for dosage within a range that might be therapeutic ([2]; Exp 16, about 40000 S100T1 cells/well): probably had a colony inhibiting activity; also recorded: the same activity possibly existed
Significance ([2]; Exp 16 day 14, Naproxen No 9, 108 μM): doubtful
Growth ([2]; Exp 16 day 14, Naproxen No 9, 108 μM in wells): (+
Significance ([2]; Exp 16 day 14, Naproxen No 9, 232 μM): possible*
Growth ([2]; Exp 16 day 14, Naproxen No 9, 232 μM in wells): (+)
Significance ([2]; Exp 16 day 21, Naproxen No 9, 108 μM): doubtful
Growth ([2]; Exp 16 day 21, Naproxen No 9, 108 μM in wells): (+
Significance ([2]; Exp 16 day 21, Naproxen No 9, 232 μM): possible*
Growth ([2]; Exp 16 day 21, Naproxen No 9, 232 μM in wells): (+)
Anti-clonal effect, summary of Exp 15 ([2]; S100T1 in soft agar): showed possible clonal inhibition at low
Anti-clonal effect, summary of Exp 16 ([2]; S100T1 in soft agar): Ibuprofen and Naproxen possibly inhibited and Acetyl
Effect on cell cloning in soft agar ([3]; preliminary results): Clonal inhibition possible

CN1C(C(=O)Nc2ccccn2)=C(O)c2ccccc2S1(=O)=O [Piroxicam]
Effect on clonal growth at 50 μM [2, 6]: inhibited doubtfully; also recorded: possibly inhibited significantly
Effect on clonal growth at 5-50 μM [2, 6]: did not inhibit clonal growth significantly
Anti-clonal effect, summary of Exp 15 ([2]; S100T1 in soft agar): Piroxicam inhibited less, but similarly
Clonal growth, L low density area of cell gradient, High [3, 7]: +
Clonal growth, L low density area of cell gradient, Low [3, 8]: ++
Effect on cell cloning in soft agar ([3]; preliminary results): Clonal inhibition possible

Insulin: Insulin Actrapid (Novo), 0.1 i.u./ml, growth factor
Stimulation of clonal growth in soft agar culture [5]: stimulate clonal growth of normal, but not transformed cells
